Data taken from US12396458B2, “Fused ring substituted aromatic compound and preparation method therefor, herbicidal composition, and use thereof” (Qingdao Kingagroot Chemical Compound Co., Ltd., priority 2020, dated 2025).

How the values were obtained:
Assay in all cases: Weeding effect in post-emergence stage (greenhouse pot test)
Format in all cases: in vivo
Rorippa indica = details: dose 7.5 g a.i./ha, fresh weight control rate
Outline: (§1)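 Greenhouse pot plants sprayed at 2-3 leaf stage (2 weeks after sowing) with compound in acetone/Tween 80 plus 1.5 L/ha methyl oleate EC, at 500, 250, 125, 60, 15, 7.5 g a.i./ha. Fresh-weight growth control scored 3 weeks later on a 0-5 scale (level 5 >85%, level 0 <5%); three replicates averaged.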

Digitaria sanguinalis = details: dose 7.5 g a.i./ha, fresh weight control rate
Outline: as §1

Capsella bursa-pastoris = details: dose 15 g a.i./ha, 3 weeks after application, fresh weight control rate
Outline: as §1

Alopecurus japonicus = details: dose 15 g a.i./ha, 3 weeks after application, fresh weight control rate
Outline: as §1

Conyza japonica = details: fresh weight control rate
Outline: as §1

Setaria viridis = details: dose 7.5 g a.i./ha, fresh weight control rate
Outline: as §1

Beckmannia syzigachne = details: dose 15 g a.i./ha, 3 weeks after application, fresh weight control rate
Outline: as §1

Eleusine indica = details: dose 7.5 g a.i./ha, fresh weight control rate
Outline: as §1

[1] = post-emergence control test, dose 7.5 g a.i./ha
[2] = post-emergence, dose 15 g a.i./ha, 3 weeks after application

SMILES | Activity level (growth control rate), Rorippa indica (Rorippa indica) | Activity level (growth control rate), Digitaria sanguinalis (Digitaria sanguinalis) | Activity level (growth control rate), Capsella bursa-pastoris (Capsella bursa-pastoris) | Activity level (growth control rate), Alopecurus japonicus (Alopecurus japonicus) | Activity level (growth control rate), Conyza japonica (Conyza japonica; [1]) | Activity level (growth control rate), Conyza japonica (Conyza japonica; [2]) | Activity level (growth control rate), Setaria viridis (Setaria viridis) | Activity level (growth control rate), Beckmannia syzigachne (Beckmannia syzigachne) | Activity level (growth control rate), Eleusine indica (Eleusine indica)
CCOC(=O)C12CCCC1C(c1cc(-n3c(=O)n(C)c(=S)n(C)c3=O)c(F)cc1Cl)=NO2 (stereo not drawn) [Compound 3] | 5 (Level 5: growth control rate is above 85%) | 4 (Level 4: growth control rate is greater than or equal to 60% and less than 85%) | 5 (Level 5: growth control rate is above 85%) | 5 (Level 5: growth control rate is above 85%) | 3 (Level 3: growth control rate is greater than or equal to 40% and less than 60%) | 4 (Level 4: growth control rate is greater than or equal to 60% and less than 85%) | 4 (Level 4: growth control rate is greater than or equal to 60% and less than 85%) | 5 (Level 5: growth control rate is above 85%) | 4 (Level 4: growth control rate is greater than or equal to 60% and less than 85%)
COC(=O)C12CCCC1C(c1cc(-n3c(=O)cc(C(F)(F)F)n(C)c3=O)c(F)cc1Cl)=NO2 (stereo not drawn) [Compound 209] | 5 (Level 5: growth control rate is above 85%) | 5 (Level 5: growth control rate is above 85%) | 5 (Level 5: growth control rate is above 85%) | 5 (Level 5: growth control rate is above 85%) | 4 (Level 4: growth control rate is greater than or equal to 60% and less than 85%) | 5 (Level 5: growth control rate is above 85%) | 5 (Level 5: growth control rate is above 85%) | 5 (Level 5: growth control rate is above 85%) | 5 (Level 5: growth control rate is above 85%)
